Experimental data from a melting point compilation (Tetko et al.; mined from patent text by program, amines drawn as free bases though some values may be those of a salt).

Compound | melting point [°C]
CN1CCN(c2ccc(Cl)nn2)CC1 | 106 to 107
CCCCC1Oc2cc(C(=O)OC)ccc2NC1=O (stereo unspecified) | 139 to 140
O=c1[nH]c2ncc(-c3ccc(-c4cn[nH]c4)cc3)nc2n1CC1CCCCC1 | 305 to 307
CCOC(=O)C1(C(=O)OCC)CCc2cc3c(cc2C1c1cc(OC)c(O)c(OC)c1)OCO3 (stereo unspecified) | 147 to 148
COC(=O)c1c(OC)c([N+](=O)[O-])c(C(=O)OC)c(OC)c1[N+](=O)[O-] | 126 to 127
COc1ccc(CC2C3=C(CCCC3)CCN2C(=O)C2CCC2)cc1 (stereo unspecified) | 89 to 91
CO[C@@H]1[C@@H](OC)[C@H](C)O[C@@H](OC(=O)Nc2ccc(-c3ccnc(-c4ccc(C(F)(F)F)cc4)n3)cc2)[C@@H]1OC | 176 to 179
CC(C)c1nc(C(C)C)c(CSc2c(F)c(F)cc(F)c2F)c(-c2ccc(F)cc2)c1CO | 109 to 110
CCCc1nc2c(N)nc3cc(OCc4cccc(Cl)c4)ccc3c2n1CC(C)C | 182 to 183
CCOC(=O)c1c(N)c(C)c(C)n1C | 63 to 64
CCOC(=O)c1snc(CO)c1N | 82 to 85
Nc1nc2c(Cc3ccccn3)c[nH]c2c(=O)[nH]1 | 280 to 282
O=C(Nc1ccnn1-c1c(Cl)cc(C(F)(F)F)c(Cl)c1Cl)C(Cl)Cl | 156 to 161
CC(C)(C)OC(=O)COc1ccc(C=O)cc1 | 56 to 57
O=C(NCCN1CCCC1)c1ccc(OCc2ccc(-c3ccccc3)cc2)cc1 | 173 to 175
O=C(O)c1csnc1-c1cc(C(F)(F)F)cc(C(F)(F)F)c1 | 151 to 154
O=C1Nc2ccccc2C(c2ccc(Cl)c(Cl)c2)CC1Br (stereo unspecified) | 183 to 188
CCc1c(-c2ccccc2)oc2c(C(=O)NCCCN3CCN(c4ccccc4OC)CC3)cccc2c1=O | 133 to 136
COc1cc2c(Nc3cccc(Cl)c3F)ncnc2cc1O[C@H]1CCCN(C(=O)CN2CCN(C)CC2)C1 | 120 to 121
CN1CCCC1CCNNC(=O)N1CCC(c2[nH]nc3c2C(=O)c2c(NC(=O)NN4CCOCC4)cccc2-3)CC1 (stereo unspecified) | 91 to 93

Compound | melting point [°C]
COc1ccccc1N1CCC(CNC(=O)Nc2c(C(C)C)cc(N)cc2C(C)C)(c2cccc(OCCCO)c2)CC1 | 203 to 205
C=CCc1c2c(cc3c(=O)cc(C(=O)OCC)oc13)CCCC2 | 98 to 101
OCC1c2cc(Cl)ccc2Oc2ccc(Cl)cc21 | 134 to 136
CCSc1cc(C)nc(SCC)c1NC(=O)CCCCCCSc1nc2ccccc2[nH]1 | 151 to 156
CC(=Cc1ccccc1Cl)C(O)(Cn1cncn1)c1ccc(Cl)cc1 (stereo unspecified) | 141 to 143
CCN1c2ncccc2C(=O)Nc2c(C)cc(N3CCCCC3CCO)nc21 (stereo unspecified) | 234 to 237
C=CCN1C(=O)C2=C(c3ccccc3)N(CC=C)C(=O)C2=C1c1ccccc1 | 216 to 217
COC(=O)c1ccc(CCc2cc3cc(C#N)ccc3o2)cc1 | 114 to 115
CCOC(=O)c1csc(N2N=C(c3ccc([N+](=O)[O-])cc3)c3cc4c(cc3CC2C)OCO4)n1 (stereo unspecified) | 242 to 243
Cc1c(C)n2nnnc2c2nc(C)n(CCNS(C)(=O)=O)c12 | > 250
COc1cc2c(cc1N1CCN(CC3Cc4ccccc4C3)CC1)OCCO2 | 176 to 178
CCCCCC1(C(=O)Oc2ccc(C(=O)O)cc2)CC2=C(C1)C(C)(C)CCC2(C)C | 156 to 158
OC(CN1CCOCC1)c1cc(C(F)(F)F)nc2c(C(F)(F)F)cccc12 (stereo unspecified) | 129 to 130
Cc1ccc(N2CCc3cc(Br)ccc32)c([N+](=O)[O-])c1 | 105 to 107
COc1cc2c(cc1OCc1ccccc1)CCN(C(=O)CC13CC4CC(CC(C4)C1)C3)C2 | 133 to 135
O=C(Nc1c[nH]nc1C(=O)Nc1ccccc1)c1ccccn1 | 281 to 282
NC(=O)CCn1c(=S)sc2ccccc21 | 226 to 227
CC1(C)Oc2ccc(C#N)cc2[C@@H](NC(=O)Nc2ccc3c(c2)CN(C(=O)OCC(Cl)(Cl)Cl)C3)[C@@H]1O | 201 to 203
CC(C)=CC1CC(C)=C(C)C2C(=O)OC(=O)C12 (stereo unspecified) | 78 to 82
COc1ccc(C(=O)Nc2ccccc2)cc1CNS(=O)(=O)c1cc(Cl)cc(Cl)c1 | 203 to 206

Results, then the compound that gave them:

melting point [°C] | Compound
116 to 119 | COc1ccccc1N1CCC(CNCC2COc3cccc(O)c3O2)CC1 (stereo unspecified)
115 to 117 | CCCCCN1C(=O)C2(COc3ccc(-c4cncnc4)cc32)c2ccccc21 (stereo unspecified)
131 to 134 | COc1ccc(-n2cnc(-c3cc(OC)cc(OC)c3)c2-c2ccc(OC)c(O)c2)cc1
194 | O=Cc1cnc2n1CCc1ccccc1C2=C1CCN(CCc2ccc(OCc3ccc4ccccc4n3)cc2)CC1
81 to 83 | COC(=O)C=C1Oc2ccccc2Oc2ccccc21
78 | CC(=O)NCCc1ccc(C(=O)c2cccc(F)c2)cc1
180 to 187 | CC(=O)Nc1cc(Br)nn1-c1c(Cl)cc(C(F)(F)F)cc1Cl
49.5 to 52 | CCC(C(=O)N(C)C)n1cc(Cl)c(-c2ccccc2C)n1 (stereo unspecified)
180 to 182 | NC(=O)c1nnn(Cc2cc(Cl)c(Sc3ccc(Cl)cc3)c(Cl)c2)c1N
31 | CCCCCC1C=CC(c2ccc(F)c(F)c2)=CC1 (stereo unspecified)
206 to 207 | CCn1c(=O)c2c(nc(/C=C/c3cccc(OC(C)=O)c3)n2C)n(CC)c1=O
247 to 248 | O=C(O)C1=Cc2cc(Cl)cc(C=NO)c2OC1C(F)(F)F (stereo unspecified)
63 to 65 | Cc1c(F)ccc(C#N)c1Cl
130 to 133 | C#CC[C@H](c1nc2cc(Cl)ccc2c(=O)n1Nc1ccccc1)N(CCCN)C(=O)c1ccc(C)cc1
197 to 199 | CC(C)CCCC(C)NC1=NS(=O)(=O)c2sc(Cl)cc2N1 (stereo unspecified)
156 | O=C1CN(c2ccccc2)C(=S)N1C1CCCCC1
193 to 194 | CCOC(=O)c1cn2c(ccc3c(Cl)cccc32)n1
94 to 97 | CCOc1cc(Cl)nc(Sc2ccc(C)cc2)n1
113 to 114 | CC1(C)c2ccccc2C(C)(C)C1(S)CC#N

melting point [°C] | Compound
64 | CNC(=O)[C@@H]1C[C@@H](OC)CN1S(=O)(=O)c1ccc(Cl)c(CBr)c1Cl
95.3 to 96.3 | Cn1c(CCC#Cc2cccc(CF)n2)nc2ccccc21
155 to 156 | CC(C)(C)c1cc(C(O)C#Cc2ccc(C(=O)O)cc2)cc(C(C)(C)C)c1OCOCC[Si](C)(C)C (stereo unspecified)
92 to 97 | COc1cc(F)ccc1-c1ccc(S(=O)(=O)N2c3ccccc3CC2C(=O)NCc2ccccc2N)cc1 (stereo unspecified)
192 to 194 | O=c1c(CCCc2ccncc2)cc2cccnc2n1-c1ccc2nonc2c1
165 to 166 | O=C(CC1(c2cccc(C(F)(F)F)c2F)CC1)C(=O)Nc1ccc2c(c1)COC2=O
172 to 174 | O=C(O)C(=O)CC(=O)c1cn(Cc2ccccc2F)c2ccccc2c1=O
128 to 129 | O=C(NC(=NCCSCc1cccs1)NCCCc1c[nH]cn1)c1ccccc1
80 to 97 | CC(C(=O)c1ccc(F)cc1F)n1cnc(-c2ccc(OCc3ccccc3)cc2)n1 (stereo unspecified)
164 to 165 | CCOC(=O)c1n[nH]cc1-c1ccccc1
114 to 116 | CCOCC1OC(n2cnc3c(NC4CCCC4)nc(Cl)nc32)C(O)C1O (stereo unspecified)
129 to 131 | CC(O)C#Cc1cc(Cl)cc2nc(-c3ccccc3Cl)oc12 (stereo unspecified)
124 to 125 | COC(=O)C(C(=O)OC)c1c(C(=O)OCc2ccc(OC)cc2)cc([N+](=O)[O-])c2ccccc12
147 to 149 | CCc1cccc(C)c1CNc1cc(OC)nc(NC)c1[N+](=O)[O-]
184 to 185 | Cc1oc(-c2ccco2)nc1COc1ccc(COc2nn(Cc3ccccc3)cc2C(=O)O)cc1OCc1ccccc1
148 | CC(C)(C)OC(=O)N[C@@H](Cc1ccc(O)c(O)c1)C(=O)O
170 to 174 | Cc1cc(C)c2c(c1)SCCC2=NO
134 | ON=C(Cc1cnccn1)c1ccc(Cl)cc1
161 to 164 | CCCCc1nc2c(N)nc3ccc(OCc4ccccc4)cc3c2n1CCCCN

melting point [°C] | Compound
145 to 146 | COc1ccc(CSc2nnc(-c3ccc4ncsc4c3)o2)cc1C(F)(F)F
203 to 207 | CCOc1cc2c(Nc3ccc(Sc4nccn4C)c(Cl)c3)c(C#N)cnc2cc1N1CCC(N2CCCC2)CC1
144 to 148 | CC(C)C1(C)NC(c2ncccc2C#N)=NC1=O (stereo unspecified)
162 to 165 | CCCCCCCCCCCc1[nH]c2ccc(C(=O)OC)cc2c1C=O
128 to 130 | CCc1cc2c(ccc(=O)n2Cc2ccc(C(=O)OC)cc2)c(CC)n1
56 to 58 | Cc1cc(OC(F)F)nc(NC(=O)Oc2ccccc2)n1
107 to 108 | C/C(=N\OCCN1CCOCC1)[C@H]1CC[C@H]2[C@@H]3CCC4=CC(=O)CC[C@]4(C)[C@H]3CC[C@]12C
253 to 257 | CC(c1oc2ccccc2c(=O)c1-c1cccc(F)c1)n1nc(-c2cc(F)c(O)c(F)c2)c2c(N)ncnc21 (stereo unspecified)
149 to 151 | COc1cc(C(C)=O)ccc1OCCCN1CCC(C(O)(c2cccc(F)c2)c2cccc(F)c2)CC1
120 to 122 | CCCc1cc(C(=O)O)nn1C
99 to 100 | OCCCc1cn(-c2ccc(C(F)(F)F)cn2)nc1-c1ccccc1
154 | CCCn1ncnc1COc1nn2c(-c3ccc(F)cc3)nncc2c1C(C)(C)C
199 to 201 | COc1cccc(OC)c1C(=O)Nc1oncc1-c1ccc(C(F)(F)F)cc1
149 to 153 | CCCc1ccc(C(=O)O)c(C(=O)O)n1
164 to 165 | CC1(C)C(=O)N(c2ccc([N+](=O)[O-])c(C(F)(F)F)c2)C(=O)N1CCCN1C(=O)N(c2ccc([N+](=O)[O-])c(C(F)(F)F)c2)C(=O)C1(C)C
86 to 87 | CCOc1nc(C2CC2)nc(OCC)c1C=O
123 to 125 | Cc1cc(O)c(SCc2ccccc2F)c(=O)o1
140 to 142 | O=C(CCCc1ccc(Cl)cc1)c1ccc(OCc2ccc3ccccc3n2)cc1
